# According to PubChem BioAssay AID2060626 (Molecular Pharmacology Branch, DTP, NCI, 2025):
# pIC50: −log10 of the molar value.
# Tested on: 168753-222-R-J1-PDC complex spheroid viability
# Experiment: Anticancer human tumor 168753-222-R-J1-PDC patient-derived bladder carcinoma cell line growth inhibition [CLK]
# Conditions: for pIC50: curve of first compound; for viability, T/C: stronger effect = lower value
# Description: A high-throughput screen of multi-cell type tumor spheroids was designed to identify active combinations of […] and targeted small molecules. Complex spheroids include a stromal component modeled by human endothelial cells (HUVEC) and fibroblasts modeled by human mesenchymal stem cells (MSCs). The concentration ranges selected for each drug and investigational agent were based upon clinically achievable concentrations if the clinical Cmax of the agent was known.
# Compounds. The drugs and investigational agents: cirtuvivint (SM08502; NSC835563), CC-671 (NSC850746), vemurafenib (NSC761431), tapotoclax (NSC804041), sotorasib (NSC818433), adagrasib (NSC831453), MRTX-1133 (NSC836407), BAY2416964 (NSC825713), copanlisib (NSC816437), inavolisib (NSC800729), abemaciclib (NSC768073), osimertinib (NSC779217), entinostat (NSC756642), eltanexor (KPT-8602, NSC794443), venetoclax (NSC766270), ceralasertib (NSC777638), bortezomib (NSC756655), olaparib (NSC753686), talazoparib (NSC767125), alisertib (NSC759677), peposertib (NSC802822), gemcitabine (NSC613327), 5-fluorouracil (NSC19893), SN-38 (NSC673596), oxaliplatin (NSC266046), paclitaxel (NSC125973), and doxorubicin (NSC123127), were obtained from the National Cancer Institute (NCI) Developmental Therapeutics Program Chemical Repository. The FDA-approved anticancer drug set is available from the Developmental Therapeutics Program at https://dtp.cancer.gov/organization/dscb/obtaining/available plates.htm. […] The stock solutions were prepared in dimethyl sulfoxide (DMSO, Sigma-Aldrich, St. Louis, MO, cat. D2650), except for the platinum complexes which were prepared in saline (Quality Biological, Gaithersburg, MD, cat. 114-055-101), at 800-fold the tested concentration and stored at -70 degrees C prior to their use. All drugs and investigational agents were tested over a range starting from a high concentration at or near the clinical Cmax and decreasing in half-log increments. If the clinical Cmax for an agent had not been determined, the highest concentration tested was 10 microM.
# Cell Culture. All cells were maintained in an incubator at 37 degrees C and 5% CO2 with 95% humidity. The PDC lines were cultured according to standard operating procedures established by the NCI PDMR. Briefly, all PDCs were thawed and cultured in Matrigel-coated flasks prepared with a working solution of 1X Ham's F-12 nutrient mix, without supplementation (Invitrogen, Waltham, MA, cat. 11765054), 100 U/mL penicillin-streptomycin (Invitrogen, cat. 15140122), and 2.5% Matrigel (Corning Inc., Corning, NY, cat. 354248) for the first three passages. The 947758-054-R-J2-PDC line was cultured in 6B/Colon 1A media, which includes advanced DMEM/F-12 (Thermo Fisher Scientific, cat. 12634028), 10 mM HEPES (Thermo Fisher Scientific, cat. 15630080), 1X GlutaMAX supplement (Thermo Fisher Scientific, cat. 35050061), 0.1 mg/mL primocin (InvivoGen, cat. ant-pm-2), 10% defined fetal bovine serum, heat inactivated (HyClone Laboratories Inc., cat. SH30070.03HI), 1.25 mM N-Acetyl-L-cysteine (Sigma-Aldrich, cat. A9165), 10 mM nicotinamide (Sigma-Aldrich, cat. N0636), 1X B-27 supplement (Thermo Fisher Scientific, cat. 17504044), 1X N-2 supplement (Thermo Fisher Scientific, cat. 17502048), and 10 microM Y-27632 dihydrochloride (Tocris Bioscience, cat. 1254). The 876862-298-R-J1-PDC was cultured in 6E media, which includes all 6B/Colon 1A media components plus 50% L-WRN conditioned media (ATCC, cat. CRL-3276), 50 ng/mL recombinant human EGF recombinant protein (hEGF; Thermo Fisher Scientific, cat. PHG0311), 10 ng/mL recombinant human fibroblast growth factor 10 (hGFG-10; PeproTech, cat. 100-26), 1 ng/mL recombinant human fibroblast growth factor 2 (hFGF-2; PeproTech, cat. 100-18B), and 1 µM prostaglandin E2 (PGE2; Tocris, cat. 2296). The 227483-062-R1-J1-PDC line was cultured in Panc media, containing all 6E components except hFGF-2, with the addition of 500 nM SB-431542 (Selleckchem, cat. S1067) and 10 nM gastrin (Tocris, cat. 3006). […]
# [1] = second compound 0.0316 µM, first compound 0.0316 µM
# [2] = second compound 0.0316 µM, first compound 0.1 µM
# [3] = second compound 0.0316 µM, first compound 0.316 µM
# [4] = second compound 0.0316 µM, first compound 1 µM
# [5] = second compound 0.1 µM, first compound 0.0316 µM
# [6] = second compound 0.1 µM, first compound 0.1 µM
# [7] = second compound 0.1 µM, first compound 0.316 µM
# [8] = second compound 0.1 µM, first compound 1 µM
# [9] = second compound 0.316 µM, first compound 0.0316 µM
# [10] = second compound 0.316 µM, first compound 0.1 µM
# [11] = second compound 0.316 µM, first compound 0.316 µM
# [12] = second compound 0.316 µM, first compound 1 µM
# [13] = second compound 1 µM, first compound 0.0316 µM
# [14] = second compound 1 µM, first compound 0.1 µM
# [15] = second compound 1 µM, first compound 0.316 µM
# [16] = second compound 1 µM, first compound 1 µM
# [17] = second compound 3.16 µM, first compound 0.0316 µM
# [18] = second compound 3.16 µM, first compound 0.1 µM
# [19] = second compound 3.16 µM, first compound 0.316 µM
# [20] = second compound 3.16 µM, first compound 1 µM
# [21] = second compound 10 µM, first compound 0.0316 µM
# [22] = second compound 10 µM, first compound 0.1 µM
# [23] = second compound 10 µM, first compound 0.316 µM
# [24] = second compound 10 µM, first compound 1 µM
# [25] = second compound 0.0316 µM, first compound 0.00316 µM
# [26] = second compound 0.0316 µM, first compound 0.01 µM
# [27] = second compound 0.1 µM, first compound 0.00316 µM
# [28] = second compound 0.1 µM, first compound 0.01 µM
# [29] = second compound 0.316 µM, first compound 0.00316 µM
# [30] = second compound 0.316 µM, first compound 0.01 µM
# [31] = second compound 1 µM, first compound 0.00316 µM
# [32] = second compound 1 µM, first compound 0.01 µM
# [33] = second compound 3.16 µM, first compound 0.00316 µM
# [34] = second compound 3.16 µM, first compound 0.01 µM
# [35] = second compound 10 µM, first compound 0.00316 µM
# [36] = second compound 10 µM, first compound 0.01 µM
# 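Also: viability measured after seven days of drug exposure.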
# 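For viability, T/C in this document: luminescence signal used as surrogate for viable cell amount; 100% = DMSO vehicle control wells.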
smiles,measurement,setting,value
CC(Nc1ccc2c(c1)OCCn1cc(N3C(=O)OCC3C(F)F)nc1-2)C(N)=O (stereo unspecified) + CN1CCN(c2cc(C(=O)Nc3cc4cc(-c5cnn(C)c5)ccc4cn3)ccn2)CC1,pIC50,second compound 0.0316 µM,7.18
same,pIC50,second compound 0.1 µM,> 7.50
same,pIC50,second compound 0.316 µM,> 7.50
same,pIC50,second compound 1 µM,> 7.50
same,pIC50,second compound 3.16 µM,> 7.50
same,pIC50,second compound 10 µM,> 7.50
same,"viability, T/C",[1],72.8%
same,"viability, T/C",[2],37%
same,"viability, T/C",[3],15%
same,"viability, T/C",[4],12.5%
same,"viability, T/C","second compound 0.0316 µM, first compound 3.16 µM",9.81%
same,"viability, T/C","second compound 0.0316 µM, first compound 10 µM",9.9%
same,"viability, T/C",[5],41.8%
same,"viability, T/C",[6],18.2%
same,"viability, T/C",[7],12.3%
same,"viability, T/C",[8],8.91%
same,"viability, T/C","second compound 0.1 µM, first compound 3.16 µM",7%
same,"viability, T/C","second compound 0.1 µM, first compound 10 µM",7.78%
same,"viability, T/C",[9],15.9%
same,"viability, T/C",[10],10.2%
same,"viability, T/C",[11],7.13%
same,"viability, T/C",[12],1.63%
same,"viability, T/C","second compound 0.316 µM, first compound 3.16 µM",0.95%
same,"viability, T/C","second compound 0.316 µM, first compound 10 µM",0.77%
same,"viability, T/C",[13],0.37%
same,"viability, T/C",[14],0.22%
same,"viability, T/C",[15],0.1%
same,"viability, T/C",[16],0.05%
same,"viability, T/C","second compound 1 µM, first compound 3.16 µM",0.08%
same,"viability, T/C","second compound 1 µM, first compound 10 µM",0.08%
same,"viability, T/C",[17],0.12%
same,"viability, T/C",[18],0.1%
same,"viability, T/C",[19],0.35%
same,"viability, T/C",[20],0.06%
same,"viability, T/C","second compound 3.16 µM, first compound 3.16 µM",2.39%
same,"viability, T/C","second compound 3.16 µM, first compound 10 µM",0.59%
same,"viability, T/C",[21],0.05%
same,"viability, T/C",[22],0.11%
same,"viability, T/C",[23],1.89%
same,"viability, T/C",[24],0.11%
same,"viability, T/C","second compound 10 µM, first compound 3.16 µM",0.27%
same,"viability, T/C","second compound 10 µM, first compound 10 µM",0.33%
CCN1CCN(Cc2ccc(Nc3ncc(F)c(-c4cc(F)c5nc(C)n(C(C)C)c5c4)n3)nc2)CC1 + CN1CCN(c2cc(C(=O)Nc3cc4cc(-c5cnn(C)c5)ccc4cn3)ccn2)CC1,pIC50,second compound 0.0316 µM,8.08
same,pIC50,second compound 0.1 µM,8.15
same,pIC50,second compound 0.316 µM,> 8.50
same,pIC50,second compound 1 µM,> 8.50
same,pIC50,second compound 3.16 µM,> 8.50
same,pIC50,second compound 10 µM,> 8.50
same,"viability, T/C",[25],76.3%
same,"viability, T/C",[26],44.8%
same,"viability, T/C",[1],29.6%
same,"viability, T/C",[2],36.7%
same,"viability, T/C",[3],22.4%
same,"viability, T/C",[4],26.2%
same,"viability, T/C",[27],76.5%
same,"viability, T/C",[28],38.7%
same,"viability, T/C",[5],20.5%
same,"viability, T/C",[6],19.9%
same,"viability, T/C",[7],17.4%
same,"viability, T/C",[8],12.6%
same,"viability, T/C",[29],11.4%
same,"viability, T/C",[30],9.45%
same,"viability, T/C",[9],8.81%
same,"viability, T/C",[10],8.47%
same,"viability, T/C",[11],10.7%
same,"viability, T/C",[12],12.1%
same,"viability, T/C",[31],0.18%
same,"viability, T/C",[32],0.21%
same,"viability, T/C",[13],1.13%
same,"viability, T/C",[14],0.13%
same,"viability, T/C",[15],1.24%
same,"viability, T/C",[16],0.34%
same,"viability, T/C",[33],0.09%
same,"viability, T/C",[34],0.13%
same,"viability, T/C",[17],0.44%
same,"viability, T/C",[18],0.08%
same,"viability, T/C",[19],1.18%
same,"viability, T/C",[20],0.99%
same,"viability, T/C",[35],0.11%
same,"viability, T/C",[36],0.29%
same,"viability, T/C",[21],0.24%
same,"viability, T/C",[22],0.13%
same,"viability, T/C",[23],1.1%
same,"viability, T/C",[24],1.36%
COc1c(OCCCN2CCOCC2)ccc2c3n(c(=NC(=O)c4cnc(N)nc4)nc12)CCN3 + CN1CCN(c2cc(C(=O)Nc3cc4cc(-c5cnn(C)c5)ccc4cn3)ccn2)CC1,pIC50,second compound 0.0316 µM,> 8.50
same,pIC50,second compound 0.1 µM,> 8.50
same,pIC50,second compound 0.316 µM,> 8.50
same,pIC50,second compound 1 µM,> 8.50
same,pIC50,second compound 3.16 µM,> 8.50
same,pIC50,second compound 10 µM,> 8.50
same,"viability, T/C",[25],49%
same,"viability, T/C",[26],28.7%
same,"viability, T/C",[1],11.2%
same,"viability, T/C",[2],7.62%
same,"viability, T/C",[3],4.48%
same,"viability, T/C",[4],3.95%
same,"viability, T/C",[27],31.4%
same,"viability, T/C",[28],21.4%
same,"viability, T/C",[5],7.93%
same,"viability, T/C",[6],4.89%
same,"viability, T/C",[7],1.94%
same,"viability, T/C",[8],0.48%
same,"viability, T/C",[29],13.2%
same,"viability, T/C",[30],10.1%
same,"viability, T/C",[9],2.34%
same,"viability, T/C",[10],0.36%
same,"viability, T/C",[11],0.18%
same,"viability, T/C",[12],1.84%
same,"viability, T/C",[31],0.61%
same,"viability, T/C",[32],0.25%
same,"viability, T/C",[13],0.08%
same,"viability, T/C",[14],0.05%
same,"viability, T/C",[15],0.06%
same,"viability, T/C",[16],0.09%
same,"viability, T/C",[33],1.35%
same,"viability, T/C",[34],0.2%
same,"viability, T/C",[17],0.08%
same,"viability, T/C",[18],0.05%
same,"viability, T/C",[19],0.09%
same,"viability, T/C",[20],0.12%
same,"viability, T/C",[35],0.06%
same,"viability, T/C",[36],0.11%
same,"viability, T/C",[21],0.17%
same,"viability, T/C",[22],0.73%
same,"viability, T/C",[23],0.21%
same,"viability, T/C",[24],0.22%
